A word on the melting point: it is the temperature, or range, at which the solid turns liquid.

`Oc1ccc(-c2cnc3cnc(-c4ccc(O)cc4)nc3c2)cc1` showed a melting point of 307 to 308 °C.

Turning to `CN(CC1OCCO1)c1nccc(Oc2ccc(NC(=O)c3cc(F)cc(N4CCCCC4)c3)c3ccccc23)n1`, the melting point lay within 125 to 127 °C.

`CCN(CC)CCNC(=O)c1cc(Cl)c(N)cc1OCCNC(C)=O` registered a melting point of 143 to 145 °C.

`CCCN(Cc1ccc(-c2ccccc2-c2nc(=O)o[nH]2)cc1)c1nn(C)cc1C(=O)O` had a melting point of 124 to 126 °C.

The compound `Cc1cc(N2CCN(C(=O)c3ccc(Nc4ccnc5cc(C(F)(F)F)ccc45)cc3)CC2)nc(N)n1` came in with a melting point of 283 to 286 °C.

The compound `O=CC(CC(=O)c1ccccc1)(c1ccccc1)c1ccccc1` returned a melting point of 125 to 127 °C.

`C[C@@H]1Cc2cc3c(cc2C(c2ccc([N+](=O)[O-])c(Cl)c2)=NN1)OCO3` displayed a melting point of 165 to 170 °C.

In the case of `CCOc1cc2c(cc1OCC)C1(CCC(C(=O)O)(C(=O)O)CC1)N(C(=O)OCc1ccccc1)CC2`, the melting point is 175 to 176 °C.

`COc1ccc(CN2CCc3cc(OCc4ccccc4)c(OC)cc3C2)cc1` had a melting point of 96 to 97 °C.

Compound `O=Cc1ccc(S(=O)(=O)CCCl)cc1` had a melting point of 70 to 72 °C.

In turn, `COn1ccn(C)c1=S` showed a melting point of 56.9 to 57.5 °C.

As for `Cn1c(S)nc(-c2ccccc2)c1-c1ccccc1`, the melting point is 179 to 182 °C.

`O=c1c2cc(F)c(N3CCCC3)nc2n(-c2ccc(F)cc2F)c(=O)n1O`: the melting point lay within 189 to 191 °C.

Regarding `C[C@@H](O)c1nccc(N2CCN(c3cnc4ccccc4n3)CC2)n1`, the melting point was in the range of 106 to 108 °C.

Take `N=c1sc2cc(OC(F)(F)F)ccc2n1CCCO`: the melting point worked out at 106 °C.

For `COc1cc2nc(N)nc(-c3ccccc3OC(F)(F)F)c2cc1OC`, the melting point was 235 to 237 °C.

As to `c1ccc2c(c1)nc(Nc1ccc3cc[nH]c3c1)c1nc(C3CCCC3)[nH]c12`, the melting point was in the range of 260 to 261 °C.

In the case of `CCCCC1(CCCC)c2cc(Br)ccc2-c2ccc(N(c3ccccc3)c3ccccc3)cc21`, the melting point fell in the range of 116 to 118 °C.

Take `Cc1c(C(=O)O)ccc2c1CCCO2`: the melting point lay in the range of 207 to 208 °C.

Compound `Cn1ncnc1COc1nn2c(-c3ccc(F)cc3F)nnc2cc1C1(C)CCCCC1` showed a melting point of 196 °C.

`COc1cc2c(cc1OC)C(COCCN1CCN(c3ccc(F)cc3)CC1)OCCC2` (stereo not given) gave a melting point of 114 °C.

`O=C(CN1CCN(c2ccncc2)CC1)c1ccc(CC(O)=S)cc1` gave a melting point of 240 to 244 °C.

Regarding `O=[N+]([O-])c1ccc(F)c(CO)c1`, the melting point was 50 to 53 °C.

In the case of `CCOC(=O)c1c(-c2ccc(F)cc2)c2ccncc2c(=O)n1C`, the melting point lay within 158 to 160 °C.

With `O=C(Cc1ccccc1)Nc1cc(Cl)c(Cl)cc1[N+](=O)[O-]`, the melting point was 116 to 118 °C.

`C=CCOc1ccc(C=NO)c(O)c1` came in with a melting point of 74 to 76 °C.

Regarding `CCOc1c(C(=O)NCC(O)CN(CC)CC)n(-c2ccccc2)c2ccccc12` (stereo not given), the melting point was in the range of 146 to 148 °C.

With `CCCOc1cc(C)ccc1C1=NC(=O)C2=NC=NC2=N1`, the melting point lay within 323 to 325 °C.

The compound `CC(C)(C)n1ncc(C(N)=O)c1N` had a melting point of 193 to 195 °C.

`CC(C)(C)NC(=O)[C@H](Cc1ccc(OCc2c(Cl)cccc2Cl)cc1)NC(=O)OC(C)(C)C`: the melting point fell in the range of 82 to 86 °C.

For the compound `O=C(OC1CCCCC1)c1cncn1C(c1ccccc1)c1ccccn1` (stereo not given), the melting point was found to be 161 °C.

As to `Cn1c(=O)n(CC(=O)N(CCO)c2ccccc2)c2cnc(-c3ccccc3)nc21`, the melting point is 231 to 233 °C.

In turn, `CCCCCCOc1ccc(-c2nccc(-c3cccc(F)c3F)n2)cn1` had a melting point of 110 °C.

On to `O=C(NCC1Cc2cccc(-c3ccc(F)cc3F)c2O1)OCc1ccccc1` (stereo not given), for which the melting point fell in the range of 78 to 80 °C.

For `Nc1ccnc(CSCCO)n1`, the melting point lay within 131 to 134 °C.

These data come from a melting point compilation (Tetko et al.; mined from patent text by program, amines drawn as free bases though some values may be those of a salt).
